# According to patent US20200188475A1, “REAGENTS FOR INDUCING AN IMMUNE RESPONSE” (Dana-Farber Cancer Institute, Inc., priority 2007, published 2020):
# Ends that are not written are not given here. * marks the point of attachment. R1 = nitroxide spin-labeled side chain, CC1(C)C=C(CS*)C(C)(C)N1[O]
# Legend:
# [1] = target: MPER segment 662-683 of HXB2 strain HIV-1 gp160 (HIV-1 (HXB2 strain)); test: ITC at 25 °C, MPER peptide with virion membrane-like liposomes injected into 4E10 Fab
# [2] = target: MPER segment 662-683 of HXB2 strain HIV-1 gp160 (HIV-1 (HXB2 strain)); test: SPR, intact IgG over membrane-bound MPER, global fit with a two-step conformational change model
# [3] = Stability of MPER adsorption to lipid-enveloped PLGA microparticles in serum-containing medium (confocal imaging); type: physicochemical; conditions: culture medium containing 10% FCS in the presence of DCs, FITC-tagged MPER, qualitative; preliminary studies
# liposomes = test: MPER binding to liposomes as a function of membrane composition; conditions: liposomes of DMPC, 4:1 DOPC:DOPG or HIV membrane-mimicking composition; preliminary studies
# [4] = Aqueous solubility of the MPER segment; type: physicochemical
# 4E10 antibody = test: SPR (BIAcore) 4E10 binding to MPER variant or spin-labeled peptides on liposomes; conditions: for 4E10 antibody binding to the spin-labeled MPER peptide: membrane-bound spin-labeled peptides, POPC/POPG liposomes; for decrease of 4E10 binding to the lipid-embedded MPER: mutation of N671 to residues occurring in other viral strains
Substance,4E10 antibody binding to the spin-labeled MPER peptide (4E10 antibody),decrease of 4E10 binding to the lipid-embedded MPER (4E10 antibody),also measured
4E10 antigen-binding fragment (Fab),,,Kd [1]: 1000 nM; enthalpy change [1]: -25 kcal/mol; entropic energy change (-TDS) [1]: 16.9 kcal/mol
4E10 broadly neutralizing anti-gp41 antibody (intact IgG),,,Kd [2]: 10 nM
ELDKWASLWNWFNITNWLWYIK [MPER],,,stability of MPER adsorption [3]: stably adsorbed to lipid-enveloped PLGA microparticles for at least a few hours; order of MPER binding affinity by liposome composition (liposomes): DMPC<DOPC/DOPG<HIV mimic; solubility in aqueous solutions [4]: can only be solubilized in aqueous solutions in the presence of detergents or lipid vesicles
F673: MPER 662-683 peptide with cysteine substitution and nitroxide spin label R1 at position F673 (ELDKWASLWNWC(R1)NITNWLWYIK),completely abolished,,
"N671D: HXB2 MPER single amino acid variant, N671 to D (ELDKWASLWDWFNITNWLWYIK)",,severely,
"N671G: HXB2 MPER single amino acid variant, N671 to G (ELDKWASLWGWFNITNWLWYIK)",,severely,
"N671S: HXB2 MPER single amino acid variant, N671 to S (ELDKWASLWSWFNITNWLWYIK)",,moderately,
"N671T: HXB2 MPER single amino acid variant, N671 to T (ELDKWASLWTWFNITNWLWYIK)",,severely,
T676: MPER 662-683 peptide with cysteine substitution and nitroxide spin label R1 at position T676 (ELDKWASLWNWFNIC(R1)NWLWYIK),completely abolished,,
W672: MPER 662-683 peptide with cysteine substitution and nitroxide spin label R1 at position W672 (ELDKWASLWNC(R1)FNITNWLWYIK),completely abolished,,
